Source: PubChem BioAssay AID256 (DTP/NCI, 2004)
“And” between values parts separate entries of the source, which are not always exact repeats. Equal values may be shown once. Inconclusive results and toxic doses are left out.

Test system: CD2F1 mice, L1210 leukemia ip, survival T/C
Experiment: NCI In Vivo Anticancer Drug Screen. Data for tumor model L1210 Leukemia (intraperitoneal) in CD2F1 (CDF1) mice
Settings: higher = longer survival
How it was run: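 Transplantable tumor in mice; compound-treated vs vehicle-treated groups. Read-out = treated/control ratio of the measured endpoint.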

[1] = endpoint: mean survival time, dose: 100.0 mg/kg/injection, schedule: Q01DX009 (ip), vehicle: saline
[2] = endpoint: mean survival time, dose: 100.0 mg/kg/injection, schedule: Q04DX003 (ip), vehicle: saline
[3] = endpoint: mean survival time, dose: 200.0 mg/kg/injection, schedule: Q04DX003 (ip), vehicle: saline

Q: How did the T/C (endpoint: mean survival time, dose: 12.5 mg/kg/injection, schedule: Q01DX001 (ip), vehicle: carboxymethylcellulose (CMC)) turn out when `CNC(=S)Nc1ncn[nH]1` was run?
A: 95 % of control

Q: What about the T/C (endpoint: mean survival time, dose: 25.0 mg/kg/injection, schedule: Q01DX001 (ip), vehicle: carboxymethylcellulose (CMC)) of the same compound?
A: 93 % of control

Q: What about the T/C (endpoint: mean survival time, dose: 50.0 mg/kg/injection, schedule: Q01DX001 (ip), vehicle: carboxymethylcellulose (CMC)) of the same compound?
A: 93 % of control

Q: And the T/C (endpoint: mean survival time, dose: 100.0 mg/kg/injection, schedule: Q01DX001 (ip), vehicle: carboxymethylcellulose (CMC))?
A: 91 % of control

Q: And the T/C (endpoint: mean survival time, dose: 200.0 mg/kg/injection, schedule: Q01DX001 (ip), vehicle: carboxymethylcellulose (CMC))?
A: 91 % of control

Q: How did the T/C (endpoint: mean survival time, dose: 25.0 mg/kg/injection, schedule: Q01DX009 (ip), vehicle: saline) turn out when `CNC1(Cc2ccc(F)cc2)CCC1` was run?
A: 100 % of control

Q: And the T/C (endpoint: mean survival time, dose: 50.0 mg/kg/injection, schedule: Q01DX009 (ip), vehicle: saline)?
A: 102 % of control

Q: What about the T/C [1] of the same compound?
A: 100 % of control

Q: With `CC(N)C(=O)c1ccccc1` (centres undefined) as the compound, how does the T/C [2] read?
A: 105 % of control

Q: And the T/C [3]?
A: 94 % of control

Q: `CCOC(=O)Nc1cc2c(c(N)n1)NC(CN(C)c1ccccc1)CN2` (centres undefined) was tested. Which T/C (endpoint: mean survival time, dose: 100.0 mg/kg/injection, schedule: Q01DX001 (ip), vehicle: Klucel (hydroxypropylcellulose) (HPC)) did it give?
A: 94 % of control

Q: What about the T/C (endpoint: mean survival time, dose: 200.0 mg/kg/injection, schedule: Q01DX001 (ip), vehicle: Klucel (hydroxypropylcellulose) (HPC)) of the same compound?
A: 103 % of control

Q: What about the T/C (endpoint: mean survival time, dose: 400.0 mg/kg/injection, schedule: Q01DX001 (ip), vehicle: Klucel (hydroxypropylcellulose) (HPC)) of the same compound?
A: 110 % of control

Q: `CC1CN(CCC#N)CC(C)O1` (centres undefined) was tested. Which T/C [1] did it give?
A: 105 % of control

Q: What about the T/C [2] of the same compound?
A: 95 % of control

Q: What about the T/C (endpoint: mean survival time, dose: 200.0 mg/kg/injection, schedule: Q01DX009 (ip), vehicle: saline) of the same compound?
A: 104 % of control

Q: What about the T/C [3] of the same compound?
A: 104 % of control

Q: And the T/C (endpoint: mean survival time, dose: 400.0 mg/kg/injection, schedule: Q01DX009 (ip), vehicle: saline)?
A: 104 % of control

Q: What about the T/C (endpoint: mean survival time, dose: 400.0 mg/kg/injection, schedule: Q04DX003 (ip), vehicle: saline) of the same compound?
A: 104 % of control

Q: `O=C(O)/C=C/CC(=O)O` was tested. Which T/C (endpoint: mean survival time, dose: 100.0 mg/kg/injection, schedule: Q01DX001 (ip), vehicle: saline) did it give?
A: 92 % of control

Q: And the T/C (endpoint: mean survival time, dose: 200.0 mg/kg/injection, schedule: Q01DX001 (ip), vehicle: saline)?
A: 97 % of control

Q: And the T/C (endpoint: mean survival time, dose: 400.0 mg/kg/injection, schedule: Q01DX001 (ip), vehicle: saline)?
A: 101 % of control

Q: Which results are given for `O=NN(CCCl)C(=O)NCCO`?
A: T/C (endpoint: mean survival time, dose: 2.5 mg/kg/injection, schedule: Q01DX001 (ip), vehicle: water): 120 % of control; T/C (endpoint: mean survival time, dose: 3.13 mg/kg/injection, schedule: Q01DX009 (ip), vehicle: water): 355 % of control; T/C (endpoint: mean survival time, dose: 5.0 mg/kg/injection, schedule: Q01DX001 (ip), vehicle: water): 158 % of control; T/C (endpoint: mean survival time, dose: 6.25 mg/kg/injection, schedule: Q01DX009 (ip), vehicle: water): 242 % of control; T/C (endpoint: mean survival time, dose: 10.0 mg/kg/injection, schedule: Q01DX001 (ip), vehicle: water): 166 % of control and 411 % of control; T/C (endpoint: mean survival time, dose: 12.5 mg/kg/injection, schedule: Q01DX009 (ip), vehicle: water): 187 % of control; T/C (endpoint: mean survival time, dose: 20.0 mg/kg/injection, schedule: Q01DX001 (ip), vehicle: water): 333 % of control and 491 % of control; T/C (endpoint: mean survival time, dose: 25.0 mg/kg/injection, schedule: Q01DX009 (ip), vehicle: water): 101 % of control; T/C (endpoint: median survival time, dose: 0.75 mg/kg/injection, schedule: Q01DX009 (ip), vehicle: water): 164 % of control; T/C (endpoint: median survival time, dose: 0.78 mg/kg/injection, schedule: Q01DX009 (ip), vehicle: water): 241 % of control; T/C (endpoint: median survival time, dose: 1.5 mg/kg/injection, schedule: Q01DX009 (ip), vehicle: water): 223 % of control; T/C (endpoint: median survival time, dose: 1.56 mg/kg/injection, schedule: Q01DX009 (ip), vehicle: water): 198 % of control; T/C (endpoint: median survival time, dose: 1.57 mg/kg/injection, schedule: Q01DX009 (ip), vehicle: water): 275 % of control; T/C (endpoint: median survival time, dose: 3.0 mg/kg/injection, schedule: Q01DX009 (ip), vehicle: water): 352 % of control; T/C (endpoint: median survival time, dose: 3.12 mg/kg/injection, schedule: Q01DX009 (ip), vehicle: water): 308 % of control; T/C (endpoint: median survival time, dose: 3.13 mg/kg/injection, schedule: Q01DX009 (ip), vehicle: water): 375 % of control; T/C (endpoint: median survival time, dose: 6.0 mg/kg/injection, schedule: Q01DX009 (ip), vehicle: water): 268 % of control; T/C (endpoint: median survival time, dose: 6.25 mg/kg/injection, schedule: Q01DX009 (ip), vehicle: water): 212 % of control and 262 % of control; T/C (endpoint: median survival time, dose: 12.0 mg/kg/injection, schedule: Q01DX009 (ip), vehicle: water): 103 % of control; T/C (endpoint: median survival time, dose: 12.5 mg/kg/injection, schedule: Q01DX009 (ip), vehicle: water): 114 % of control and 103 % of control; T/C (endpoint: median survival time, dose: 25.0 mg/kg/injection, schedule: Q01DX009 (ip), vehicle: water): 97 % of control

Q: With `OC1C2CCN(CC2)C1CN1CC=C(c2ccccc2)CC1` (centres undefined) as the compound, how does the T/C [2] read?
A: 100 % of control
